Measured values published in PubChem BioAssay AID192 (DTP/NCI, 2004).
“And” between values parts separate entries of the source, which are not always exact repeats. Equal entries are not always repeated. Toxic doses and inconclusive results are not listed.

Test system: BDF1 mice, B16 melanoma ip, median survival T/C
Assay: NCI In Vivo Anticancer Drug Screen. Data for tumor model B16 Melanoma (intraperitoneal) in B6D2F1 (BDF1) mice
Details: endpoint: median survival time, higher = longer survival
Outline: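 Survival or tumor size is measured after treatment of tumor-bearing mice and normalised to the vehicle-treated control group.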

[1] = dose: 100.0 mg/kg/injection, schedule: Q01DX009 (ip), vehicle: saline with Tween-80
[2] = dose: 400.0 mg/kg/injection, schedule: Q01DX009 (ip), vehicle: saline with Tween-80

Structure (SMILES): CSC1SCC2C(=O)N(C)C(C(C)C)C(=O)OCC(NC(=O)c3cnc4ccccc4n3)C(=O)NC(C)C(=O)N(C)C1C(=O)N(C)C(C(C)C)C(=O)OCC(NC(=O)c1cnc3ccccc3n1)C(=O)NC(C)C(=O)N2C (stereo not drawn)
- T/C (dose: 0.1 micrograms/kg/injection, schedule: Q01DX009 (ip), vehicle: saline with Tween-80): 106 % of control
- T/C (dose: 0.2 micrograms/kg/injection, schedule: Q01DX009 (ip), vehicle: saline with Tween-80): 105 % of control
- T/C (dose: 0.4 micrograms/kg/injection, schedule: Q01DX009 (ip), vehicle: saline with Tween-80): 108 % of control
- T/C (dose: 0.9 micrograms/kg/injection, schedule: Q01DX009 (ip), vehicle: saline with Tween-80): 108 % of control
- T/C (dose: 0.94 micrograms/kg/injection, schedule: Q01DX009 (ip), vehicle: Klucel (hydroxypropylcellulose) (HPC)): 93 % of control
- T/C (dose: 0.94 micrograms/kg/injection, schedule: Q01DX009 (ip), vehicle: clinical formulation): 113 % of control
- T/C (dose: 0.94 micrograms/kg/injection, schedule: Q01DX009 (ip), vehicle: distilled water + alcohol): 118 % of control
- T/C (dose: 1.8 micrograms/kg/injection, schedule: Q01DX009 (ip), vehicle: saline with Tween-80): 151 % of control and 167 % of control
- T/C (dose: 1.88 micrograms/kg/injection, schedule: Q01DX009 (ip), vehicle: Klucel (hydroxypropylcellulose) (HPC)): 88 % of control
- T/C (dose: 1.88 micrograms/kg/injection, schedule: Q01DX009 (ip), vehicle: clinical formulation): 112 % of control
- T/C (dose: 1.88 micrograms/kg/injection, schedule: Q01DX009 (ip), vehicle: distilled water + alcohol): 117 % of control
- T/C (dose: 1.9 micrograms/kg/injection, schedule: Q01DX009 (ip), vehicle: saline): 156 % of control
- T/C (dose: 3.75 micrograms/kg/injection, schedule: Q01DX009 (ip), vehicle: Klucel (hydroxypropylcellulose) (HPC)): 102 % of control
- T/C (dose: 3.75 micrograms/kg/injection, schedule: Q01DX009 (ip), vehicle: distilled water + alcohol): 113 % of control
- T/C (dose: 3.8 micrograms/kg/injection, schedule: Q01DX009 (ip), vehicle: saline): 123 % of control
- T/C (dose: 7.5 micrograms/kg/injection, schedule: Q01DX009 (ip), vehicle: Klucel (hydroxypropylcellulose) (HPC)): 107 % of control
- T/C (dose: 7.5 micrograms/kg/injection, schedule: Q01DX009 (ip), vehicle: distilled water + alcohol): 123 % of control
- T/C (dose: 8.0 micrograms/kg/injection, schedule: Q01DX009 (ip), vehicle: other): 152 % of control and 155 % of control
- T/C (dose: 15.0 micrograms/kg/injection, schedule: Q01DX009 (ip), vehicle: Klucel (hydroxypropylcellulose) (HPC)): 115 % of control
- T/C (dose: 15.0 micrograms/kg/injection, schedule: Q01DX009 (ip), vehicle: clinical formulation): 169 % of control
- T/C (dose: 15.0 micrograms/kg/injection, schedule: Q01DX009 (ip), vehicle: saline): 174 % of control
- T/C (dose: 16.0 micrograms/kg/injection, schedule: Q01DX009 (ip), vehicle: other): 161 % of control
- T/C (dose: 16.0 micrograms/kg/injection, schedule: Q01DX009 (ip), vehicle: saline sonified): 160 % of control and 168 % of control
- T/C (dose: 16.0 micrograms/kg/injection, schedule: Q01DX009 (ip), vehicle: saline): 160 % of control
- T/C (dose: 30.0 micrograms/kg/injection, schedule: Q01DX009 (ip), vehicle: clinical formulation): 168 % of control
- T/C (dose: 30.0 micrograms/kg/injection, schedule: Q01DX009 (ip), vehicle: saline with Tween-80): 88 % of control
- T/C (dose: 30.0 micrograms/kg/injection, schedule: Q01DX009 (ip), vehicle: saline): 183 % of control
- T/C (dose: 32.0 micrograms/kg/injection, schedule: Q01DX009 (ip), vehicle: other): 157 % of control and 158 % of control and 160 % of control
- T/C (dose: 32.0 micrograms/kg/injection, schedule: Q01DX009 (ip), vehicle: saline sonified): 167 % of control and 170 % of control and 189 % of control
- T/C (dose: 32.0 micrograms/kg/injection, schedule: Q01DX009 (ip), vehicle: saline): 165 % of control
- T/C (dose: 32.0 micrograms/kg/injection, schedule: Q04DX003 (ip), vehicle: saline sonified): 156 % of control
- T/C (dose: 60.0 micrograms/kg/injection, schedule: Q01DX009 (ip), vehicle: clinical formulation): 173 % of control
- T/C (dose: 60.0 micrograms/kg/injection, schedule: Q01DX009 (ip), vehicle: distilled water + alcohol): 168 % of control
- T/C (dose: 60.0 micrograms/kg/injection, schedule: Q01DX009 (ip), vehicle: saline): 165 % of control
- T/C (dose: 64.0 micrograms/kg/injection, schedule: Q01DX009 (ip), vehicle: other): 159 % of control and 189 % of control and 215 % of control
- T/C (dose: 64.0 micrograms/kg/injection, schedule: Q01DX009 (ip), vehicle: saline sonified): 165 % of control and 172 % of control
- T/C (dose: 64.0 micrograms/kg/injection, schedule: Q01DX009 (ip), vehicle: saline): 176 % of control
- T/C (dose: 64.0 micrograms/kg/injection, schedule: Q04DX003 (ip), vehicle: saline sonified): 174 % of control
- T/C (dose: 120.0 micrograms/kg/injection, schedule: Q01DX009 (ip), vehicle: Klucel (hydroxypropylcellulose) (HPC)): 154 % of control
- T/C (dose: 120.0 micrograms/kg/injection, schedule: Q01DX009 (ip), vehicle: distilled water + alcohol): 173 % of control
- T/C (dose: 120.0 micrograms/kg/injection, schedule: Q01DX009 (ip), vehicle: saline with Tween-80): 162 % of control and 189 % of control
- T/C (dose: 128.0 micrograms/kg/injection, schedule: Q01DX009 (ip), vehicle: saline sonified): 164 % of control and 188 % of control
- T/C (dose: 128.0 micrograms/kg/injection, schedule: Q01DX009 (ip), vehicle: saline): 166 % of control
- T/C (dose: 128.0 micrograms/kg/injection, schedule: Q04DX003 (ip), vehicle: saline sonified): 165 % of control
- T/C (dose: 192.0 micrograms/kg/injection, schedule: Q04DX003 (ip), vehicle: saline sonified): 180 % of control
- T/C (dose: 240.0 micrograms/kg/injection, schedule: Q01DX009 (ip), vehicle: Klucel (hydroxypropylcellulose) (HPC)): 151 % of control
- T/C (dose: 240.0 micrograms/kg/injection, schedule: Q01DX009 (ip), vehicle: saline with Tween-80): 115 % of control
- T/C (dose: 256.0 micrograms/kg/injection, schedule: Q04DX003 (ip), vehicle: saline sonified): 175 % of control
- T/C (dose: 480.0 micrograms/kg/injection, schedule: Q01DX009 (ip), vehicle: Klucel (hydroxypropylcellulose) (HPC)): 168 % of control

Structure (SMILES): CC[C@@]1(O)C[C@H](OC2CC(N(C)C)C(OC3CC(O)C(O[C@@H]4O[C@@H](C)C(=O)C=C4N)C(C)O3)C(C)O2)c2c(cc3c(c2O)C(=O)c2c(O)ccc(O)c2C3=O)[C@H]1C(=O)OC (stereo partly drawn)
- T/C (dose: 0.03 mg/kg/injection, schedule: Q01DX001 (ip), vehicle: saline): 113 % of control
- T/C (dose: 0.05 mg/kg/injection, schedule: Q01DX001 (ip), vehicle: saline): 109 % of control
- T/C (dose: 0.38 mg/kg/injection, schedule: Q01DX009 (ip), vehicle: saline): 178 % of control
- T/C (dose: 0.75 mg/kg/injection, schedule: Q01DX009 (ip), vehicle: saline): 167 % of control
- T/C (dose: 1.5 mg/kg/injection, schedule: Q01DX009 (ip), vehicle: saline): 223 % of control
- T/C (dose: 1.6 mg/kg/injection, schedule: Q01DX001 (ip), vehicle: saline): 159 % of control
- T/C (dose: 3.2 mg/kg/injection, schedule: Q01DX001 (ip), vehicle: saline): 114 % of control
- T/C (dose: 1.0 micrograms/kg/injection, schedule: Q01DX005 (ip), vehicle: Klucel (hydroxypropylcellulose) (HPC)): 110 % of control
- T/C (dose: 2.0 micrograms/kg/injection, schedule: Q01DX005 (ip), vehicle: Klucel (hydroxypropylcellulose) (HPC)): 100 % of control
- T/C (dose: 4.0 micrograms/kg/injection, schedule: Q01DX005 (ip), vehicle: Klucel (hydroxypropylcellulose) (HPC)): 107 % of control
- T/C (dose: 8.0 micrograms/kg/injection, schedule: Q01DX005 (ip), vehicle: Klucel (hydroxypropylcellulose) (HPC)): 103 % of control

Structure (SMILES): CN(C)CCN(Cc1ccccc1)c1ccccc1
- T/C (dose: 25.0 mg/kg/injection, schedule: Q04DX003 (ip), vehicle: Klucel (hydroxypropylcellulose) (HPC)): 95 % of control
- T/C (dose: 50.0 mg/kg/injection, schedule: Q04DX003 (ip), vehicle: Klucel (hydroxypropylcellulose) (HPC)): 89 % of control

Structure (SMILES): CCOc1ncc([N+](=O)[O-])c(OCC)n1
- T/C (dose: 50.0 mg/kg/injection, schedule: Q01DX009 (ip), vehicle: saline with Tween-80): 104 % of control
- T/C [1]: 100 % of control
- T/C [2]: 95 % of control

Structure (SMILES): OC(c1ccccc1)C1(c2ccccc2)OCCO1 (stereo not drawn)
- T/C [1]: 100 % of control
- T/C (dose: 200.0 mg/kg/injection, schedule: Q01DX009 (ip), vehicle: saline with Tween-80): 95 % of control
- T/C [2]: 90 % of control
